Reference: PubChem BioAssay AID248 (DTP/NCI, 2004)
Values joined by “and” are separate entries in the source; they are usually repeats but may differ in a detail not shown here. Equal values may be shown once. Toxic doses and inconclusive results are not listed. Cut-off read from the data, not from the text of the source: active = T/C of 150% or more; inactive = T/C below 125%.

Test system: L1210 leukemia ip in BDF1 mice, survival T/C
Experiment: NCI In Vivo Anticancer Drug Screen. Data for tumor model L1210 Leukemia (intraperitoneal) in B6D2F1 (BDF1) mice
Details: higher = longer survival
In short: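 Transplantable tumor model; survival measured in treated vs vehicle control mice. Value = treated/control.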

[1] = endpoint: mean survival time, dose: 12.5 mg/kg/injection, schedule: Q01DX009 (ip), vehicle: saline
[2] = endpoint: mean survival time, dose: 12.5 mg/kg/injection, schedule: Q04DX003 (ip), vehicle: saline
[3] = endpoint: mean survival time, dose: 25.0 mg/kg/injection, schedule: Q01DX009 (ip), vehicle: saline
[4] = endpoint: mean survival time, dose: 25.0 mg/kg/injection, schedule: Q04DX003 (ip), vehicle: saline
[5] = endpoint: mean survival time, dose: 50.0 mg/kg/injection, schedule: Q01DX009 (ip), vehicle: saline
[6] = endpoint: mean survival time, dose: 50.0 mg/kg/injection, schedule: Q04DX003 (ip), vehicle: saline
[7] = endpoint: mean survival time, dose: 100.0 mg/kg/injection, schedule: Q04DX002 (ip), vehicle: Klucel (hydroxypropylcellulose) (HPC)
[8] = endpoint: mean survival time, dose: 200.0 mg/kg/injection, schedule: Q04DX002 (ip), vehicle: Klucel (hydroxypropylcellulose) (HPC)
[9] = endpoint: mean survival time, dose: 6.25 mg/kg/injection, schedule: Q01DX009 (ip), vehicle: saline
[10] = endpoint: mean survival time, dose: 100.0 mg/kg/injection, schedule: Q04DX003 (ip), vehicle: saline with Tween-80
[11] = endpoint: mean survival time, dose: 200.0 mg/kg/injection, schedule: Q04DX003 (ip), vehicle: saline with Tween-80
[12] = endpoint: mean survival time, dose: 400.0 mg/kg/injection, schedule: Q04DX003 (ip), vehicle: saline with Tween-80
[13] = endpoint: mean survival time, dose: 200.0 mg/kg/injection, schedule: Q01DX009 (ip), vehicle: saline with Tween-80
[14] = endpoint: mean survival time, dose: 400.0 mg/kg/injection, schedule: Q01DX009 (ip), vehicle: saline with Tween-80

Measured: T/C

COc1ccc(C(=O)/C(Br)=C/C(=O)O)cc1
inactive: [1] 102 % of control and 103 % of control and 108 % of control | [2] 94 % of control | [3] 98 % of control and 108 % of control (2×) | endpoint: mean survival time, dose: 25.0 mg/kg/injection, schedule: Q04DX002 (ip), vehicle: saline 101 % of control | [4] 94 % of control | [5] 95 % of control and 110 % of control (2×) | endpoint: mean survival time, dose: 50.0 mg/kg/injection, schedule: Q04DX002 (ip), vehicle: saline 105 % of control | [6] 108 % of control | endpoint: mean survival time, dose: 100.0 mg/kg/injection, schedule: Q04DX002 (ip), vehicle: saline 112 % of control and 92 % of control

COC1OC2COC(c3ccccc3)OC2C(OC)C1OC (configuration not stated)
inactive: endpoint: mean survival time, dose: 12.5 mg/kg/injection, schedule: Q04DX002 (ip), vehicle: Klucel (hydroxypropylcellulose) (HPC) 100 % of control | endpoint: mean survival time, dose: 25.0 mg/kg/injection, schedule: Q04DX002 (ip), vehicle: Klucel (hydroxypropylcellulose) (HPC) 91 % of control | endpoint: mean survival time, dose: 50.0 mg/kg/injection, schedule: Q04DX002 (ip), vehicle: Klucel (hydroxypropylcellulose) (HPC) 103 % of control and 91 % of control | [7] 108 % of control | [8] 95 % of control

CC(COS(C)(=O)=O)(COS(C)(=O)=O)Cc1ccccc1
inactive: endpoint: mean survival time, dose: 100.0 mg/kg/injection, schedule: Q01DX009 (ip), vehicle: Klucel (hydroxypropylcellulose) (HPC) 103 % of control | endpoint: mean survival time, dose: 200.0 mg/kg/injection, schedule: Q01DX009 (ip), vehicle: Klucel (hydroxypropylcellulose) (HPC) 95 % of control | endpoint: mean survival time, dose: 400.0 mg/kg/injection, schedule: Q01DX009 (ip), vehicle: Klucel (hydroxypropylcellulose) (HPC) 93 % of control

C=CCC(N)Cc1ccccc1 (configuration not stated)
inactive: [9] 101 % of control | [1] 113 % of control | [3] 101 % of control | [4] 96 % of control | [5] 109 % of control | [6] 105 % of control | endpoint: mean survival time, dose: 100.0 mg/kg/injection, schedule: Q04DX003 (ip), vehicle: saline 102 % of control

COc1cc(CC(=O)O)c(Br)cc1C
inactive: endpoint: mean survival time, dose: 100.0 mg/kg/injection, schedule: Q01DX009 (ip), vehicle: saline 97 % of control | [10] 101 % of control | endpoint: mean survival time, dose: 200.0 mg/kg/injection, schedule: Q01DX009 (ip), vehicle: saline 109 % of control | [11] 104 % of control | endpoint: mean survival time, dose: 400.0 mg/kg/injection, schedule: Q01DX009 (ip), vehicle: saline 92 % of control | [12] 108 % of control

O=C(O)Cn1c(C(F)(F)F)nc2nc(Cl)c(Cl)nc21
inactive: endpoint: mean survival time, dose: 100.0 mg/kg/injection, schedule: Q01DX009 (ip), vehicle: saline with Tween-80 89 % of control | [10] 94 % of control | [13] 100 % of control | [11] 94 % of control | [14] 92 % of control | [12] 97 % of control

CCN(C(=O)N(CCCl)N=O)C1CCCCC1
inactive: endpoint: mean survival time, dose: 75.0 mg/kg/injection, schedule: Q01DX001 (ip), vehicle: saline 97 % of control

Nc1ncnc(N)c1NC(=O)c1cc(Cl)c(OCc2ccccc2)c(Cl)c1
inactive: endpoint: mean survival time, dose: 100.0 mg/kg/injection, schedule: Q01DX001 (ip), vehicle: saline with Tween-80 91 % of control | endpoint: mean survival time, dose: 200.0 mg/kg/injection, schedule: Q01DX001 (ip), vehicle: saline with Tween-80 96 % of control | endpoint: mean survival time, dose: 400.0 mg/kg/injection, schedule: Q01DX001 (ip), vehicle: saline with Tween-80 96 % of control

CC(=O)NC(CS)C(=O)O (configuration not stated)
inactive: endpoint: mean survival time, dose: 100.0 mg/kg/injection, schedule: Q01DX001 (ip), vehicle: saline 96 % of control | endpoint: mean survival time, dose: 200.0 mg/kg/injection, schedule: Q01DX001 (ip), vehicle: saline 95 % of control | endpoint: mean survival time, dose: 400.0 mg/kg/injection, schedule: Q01DX001 (ip), vehicle: saline 98 % of control | endpoint: median survival time, dose: 250.0 mg/kg/injection, schedule: Q01DX001 (ip), vehicle: saline 100 % of control | endpoint: median survival time, dose: 500.0 mg/kg/injection, schedule: Q01DX001 (ip), vehicle: none 101 % of control | endpoint: median survival time, dose: 750.0 mg/kg/injection, schedule: Q01DX001 (ip), vehicle: none 99 % of control | endpoint: median survival time, dose: 750.0 mg/kg/injection, schedule: Q01DX001 (ip), vehicle: saline 100 % of control | endpoint: median survival time, dose: 1000.0 mg/kg/injection, schedule: Q01DX001 (ip), vehicle: none 97 % of control and 106 % of control | endpoint: median survival time, dose: 1000.0 mg/kg/injection, schedule: Q01DX009 (ip), vehicle: saline 93 % of control | endpoint: median survival time, dose: 1000.0 mg/kg/injection, schedule: Q01DX014 (ip), vehicle: saline 100 % of control and 102 % of control | endpoint: median survival time, dose: 1000.0 mg/kg/injection, schedule: Q07DX003 (ip), vehicle: saline 94 % of control | endpoint: median survival time, dose: 1500.0 mg/kg/injection, schedule: Q01DX001 (ip), vehicle: none 113 % of control | endpoint: median survival time, dose: 1500.0 mg/kg/injection, schedule: Q01DX009 (ip), vehicle: saline 96 % of control | endpoint: median survival time, dose: 1500.0 mg/kg/injection, schedule: Q01DX014 (ip), vehicle: saline 102 % of control and 105 % of control | endpoint: median survival time, dose: 1500.0 mg/kg/injection, schedule: Q07DX003 (ip), vehicle: saline 94 % of control | endpoint: median survival time, dose: 2000.0 mg/kg/injection, schedule: Q01DX001 (ip), vehicle: saline 100 % of control

C[N+](C)(C)CCCC1C2CCC(C2)C1C#N (configuration not stated)
inactive: endpoint: mean survival time, dose: 3.13 mg/kg/injection, schedule: Q01DX009 (ip), vehicle: saline 101 % of control | [9] 97 % of control | [1] 98 % of control and 101 % of control | [2] 102 % of control | [4] 98 % of control | [6] 96 % of control

COc1ccc(CCN)cc1F
inactive: [7] 98 % of control | [8] 102 % of control

N#CC(Nc1ccccc1)C1CC1c1ccccc1 (configuration not stated)
inactive: endpoint: mean survival time, dose: 12.5 mg/kg/injection, schedule: Q01DX009 (ip), vehicle: saline with Tween-80 94 % of control | endpoint: mean survival time, dose: 12.5 mg/kg/injection, schedule: Q04DX003 (ip), vehicle: saline with Tween-80 98 % of control | endpoint: mean survival time, dose: 25.0 mg/kg/injection, schedule: Q01DX009 (ip), vehicle: saline with Tween-80 100 % of control | endpoint: mean survival time, dose: 25.0 mg/kg/injection, schedule: Q04DX003 (ip), vehicle: saline with Tween-80 102 % of control | endpoint: mean survival time, dose: 50.0 mg/kg/injection, schedule: Q01DX009 (ip), vehicle: saline with Tween-80 95 % of control | endpoint: mean survival time, dose: 50.0 mg/kg/injection, schedule: Q04DX003 (ip), vehicle: saline with Tween-80 101 % of control

COC(=O)C12OCC34C(CC5C(C)=C(O)C(=O)CC5(C)C3C(O)C1O)OC(=O)C(OC(=O)C=C(C)C)C24 (configuration not stated)
inactive: endpoint: mean survival time, dose: 0.78 mg/kg/injection, schedule: Q04DX002 (ip), vehicle: saline with Tween-80 94 % of control | endpoint: mean survival time, dose: 1.56 mg/kg/injection, schedule: Q04DX002 (ip), vehicle: saline with Tween-80 102 % of control | endpoint: mean survival time, dose: 3.13 mg/kg/injection, schedule: Q04DX002 (ip), vehicle: saline with Tween-80 105 % of control

Cc1cc(C(=O)O)c(C)[nH]1
inactive: endpoint: mean survival time, dose: 25.0 mg/kg/injection, schedule: Q04DX003 (ip), vehicle: Klucel (hydroxypropylcellulose) (HPC) 105 % of control | endpoint: mean survival time, dose: 50.0 mg/kg/injection, schedule: Q04DX003 (ip), vehicle: Klucel (hydroxypropylcellulose) (HPC) 100 % of control | endpoint: mean survival time, dose: 75.0 mg/kg/injection, schedule: Q04DX003 (ip), vehicle: Klucel (hydroxypropylcellulose) (HPC) 101 % of control | endpoint: mean survival time, dose: 100.0 mg/kg/injection, schedule: Q04DX003 (ip), vehicle: Klucel (hydroxypropylcellulose) (HPC) 93 % of control | endpoint: mean survival time, dose: 200.0 mg/kg/injection, schedule: Q04DX003 (ip), vehicle: Klucel (hydroxypropylcellulose) (HPC) 95 % of control | endpoint: mean survival time, dose: 400.0 mg/kg/injection, schedule: Q04DX003 (ip), vehicle: Klucel (hydroxypropylcellulose) (HPC) 101 % of control

CCOC(=O)c1ccc(NC(=S)NC(=O)c2ccc(Cl)cc2Cl)cc1
inactive: [13] 88 % of control | [14] 88 % of control

COc1ccc(/C(C#N)=C2\OC(=O)c3ccccc32)cc1OC
inactive: endpoint: mean survival time, dose: 100.0 mg/kg/injection, schedule: Q01DX001 (ip), vehicle: carboxymethylcellulose (CMC) 89 % of control | endpoint: mean survival time, dose: 200.0 mg/kg/injection, schedule: Q01DX001 (ip), vehicle: carboxymethylcellulose (CMC) 94 % of control | endpoint: mean survival time, dose: 400.0 mg/kg/injection, schedule: Q01DX001 (ip), vehicle: carboxymethylcellulose (CMC) 89 % of control

OC(c1ccccc1)C1(O)CC2CCC1C2 (configuration not stated)
inactive: endpoint: mean survival time, dose: 6.25 mg/kg/injection, schedule: Q01DX001 (ip), vehicle: saline 96 % of control | endpoint: mean survival time, dose: 125.0 mg/kg/injection, schedule: Q01DX001 (ip), vehicle: saline 100 % of control | endpoint: mean survival time, dose: 250.0 mg/kg/injection, schedule: Q01DX001 (ip), vehicle: saline 98 % of control
